Measurements from patent US20250134667A1, “BIOABSORBABLE AND PHOTOCURABLE COMPOSITION, BIOABSORBABLE GUIDED TISSUE REGENERATION COMPOSITION, AND GRAFTING METHOD USING SAME” (priority 2022, published 2025).
Peptide text beside a SMILES is read from it.

Assays:
[1] = system: gingival tissue of an adult dog; assay: Tissue penetration ability in animal tissue, adult dog; type: in vivo, adult dog (beagle dog)
Experimental: (§1) The amine group of the peptide having the amino acid of SEQ ID NO: 1 was labeled with fluorescence using Alexa Fluor™ 680 NHS Ester (Thermo Fisher, A20008). The fluorescent labeling method followed the method provided by the manufacturer. The fluorescently labeled peptide was dissolved in water for injection at a concentration of 250 mg/ml, and 10 μL was injected into the gingival sulcus of the premolars of an adult dog (beagle dog) and the anterior gingival sulcus of a rabbit. After 2 hours, to check the permeability of the peptide in the tissue, the animal was sacrificed, the gingival tissue was collected, and tissues were embedded using Tissue-Tek® O.C.T. Compound (Sakura Finetek, 4583). After sectioning the embedded tissue at 10 μm thickness, fluorescently labeled peptides were confirmed using a confocal scanning fluorescence microscope. The nuclei of tissue cells were stained using DAPI.

[2] = system: gingival tissue of a rabbit; assay: Tissue penetration ability in animal tissue, rabbit; type: in vivo; settings: living rabbit
Experimental: as §1

pNFκB = assay: Western blot of pNFkB in Raw264.7 cells; type: cell-based, mouse; settings: only the peptide, no LPS
Experimental: (§2) Raw264.7 cells were purchased from ATCC (American Type Culture Collection) and used in the experiment. Raw264.7 cells were cultured in a CO2 incubator at 37° C. supplied with 5% CO2 and 95% air using DMEM (Dulbecco's modified Eagle medium) medium supplemented with 10% FBS and 100 units/ml antibiotics (penicillin-streptomycin).
[…] After 8 hours, the treated cells were collected, protease inhibitor cocktail and phosphatase inhibitor cocktail were added to Radioimmunoprecipitation assay buffer (RIPA buffer solution, Thermo Fisher, 89900), and the cells were treated to lyse the cells. After centrifuging the cell lysate and collecting the supernatant, the concentration of the cell lysate was measured using a bicinchoninic acid assay (BCA assay, Thermo Fisher, 23227), and RIPA buffer solution was added thereto to prepare the cell lysate to a final concentration of 5 mg/mL. Then, it was mixed with a buffer solution including 1 M Tris-HCl (pH 6.8), 50% glycerol, and 10% SDS in a 4:1 ratio, and then sodium dodecyl sulfate-poly acrylamide gel electrophoresis (SDS-PAGE) was performed. […]

plkBa = assay: Western blot of plkBa in Raw264.7 cells; type: cell-based, mouse; settings: only the peptide, no LPS
Experimental: as §2
Raw264.7 cells were treated with 200 μM of the peptide having the amino acid sequence of SEQ ID NO: 1 for 30 minutes, and then treated with 1 μg/ml LPS (lipopolysaccharide, Merck, L3024). After 8 hours, the treated cells were collected, protease inhibitor cocktail and phosphatase inhibitor cocktail were added to Radioimmunoprecipitation assay buffer (RIPA buffer solution, Thermo Fisher, 89900), and the cells were treated to lyse the cells. After centrifuging the cell lysate and collecting the supernatant, the concentration of the cell lysate was measured using a bicinchoninic acid assay (BCA assay, Thermo Fisher, 23227), and RIPA buffer solution was added thereto to prepare the cell lysate to a final concentration of 5 mg/mL. Then, it was mixed with a buffer solution including 1 M Tris-HCl (pH 6.8), 50% glycerol, and 10% SDS in a 4:1 ratio, and then sodium dodecyl sulfate-poly acrylamide gel electrophoresis (SDS-PAGE) was performed. […]

Raw264.7 cells = assay: Cell penetration ability at the cellular level (confocal microscopy); type: cell-based, mouse; settings: 50, 100, 200 μM, 1 hour
Experimental: The N-terminus of the peptide having the amino acid of SEQ ID NO: 1 prepared in Example 1 was fluorescently labeled with Rhodamine B (Tokyo chemical industry Co., LTD., A5102). Raw264.7 cells were distributed 3×10^4 each into a 4-well chamber and cultured in DMEM medium for 24 hours to stabilize the cells. After 24 hours, fluorescently labeled peptide was added to the medium at concentrations of 50, 100, and 200 μM. After 1 hour of peptide treatment, a degree of penetration of the peptide into cells was observed using a confocal scanning fluorescence microscope […]. Cell nuclei were stained using 4′,6-diamidino-2-phenylindole (DAPI, Thermo Fisher, D1306). DIC represents the case observed under a general microscope, Nuceli represents the nucleus of a cell, Peptide represents the degree of penetration of a peptide bound to rhodamine B, and MERGE represents an image that overlaps images of DIC, Nuclei, and the penetrated peptide.

## C[C@@H](O)[C@H](NC(=O)[C@H](CO)NC(=O)[C@H](CS)NC(=O)[C@H](CCCCN)NC(=O)CN)C(=O)N[C@@H](CCCNC(=N)N)C(=O)NCC(=O)N[C@@H](CCCNC(=N)N)C(=O)N[C@@H](CCCCN)C(=O)N[C@@H](CO)C(=O)N[C@@H](CO)C(=O)N[C@@H](CCCNC(=N)N)C(=O)N[C@@H](CCCNC(=N)N)C(=O)N[C@@H](CCCCN)C(=O)N[C@@H](CCCCN)C(N)=O [SEQ ID NO: 1, GKCSTRGRKSSRRKK] (H-GKCSTRGRKSSRRKK-NH2; N-terminus and C-terminus assumed)
[1]
  penetration into gingival tissue (in words): penetrated
[2]
  penetration into gingival tissue (in words): penetrated
pNFκB
  expression of pNFκB, peptide only: no effect
plkBa
  expression of plkBa, peptide only: no effect
Raw264.7 cells
  concentration dependence of intracellular fluorescence: as the concentration of peptide increased, the intensity of fluorescence also increased
